Data: PubChem BioAssay (NCI)
Where “and” joins values, the source holds several entries; their conditions need not be identical. Identical values can stand only once.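 Exposure lasted 48 hours, with cells grown in 96-well plates and compounds tested at five concentrations. Here, GI50 denotes the concentration required for 50% inhibition of growth. TGI: total growth inhibition.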

Columns and labels:
Test in all cases: DTP human tumour cell line panel, 48 h
SK-MEL-2 melanoma = test system: SK-MEL-2 melanoma
M14 melanoma = test system: M14 melanoma
OVCAR-4 ovarian = test system: OVCAR-4 ovarian
SW-620 colon = test system: SW-620 colon
SF-295 CNS = test system: SF-295 CNS
PC-3 prostate = test system: PC-3 prostate
MDA-MB-435 = test system: MDA-MB-435
U251 CNS = test system: U251 CNS
SF-539 CNS = test system: SF-539 CNS
ACHN renal = test system: ACHN renal

SMILES | GI50 (SK-MEL-2 melanoma) | TGI (SK-MEL-2 melanoma) | GI50 (M14 melanoma) | TGI (M14 melanoma) | GI50 (OVCAR-4 ovarian) | TGI (OVCAR-4 ovarian) | GI50 (SW-620 colon) | TGI (SW-620 colon) | GI50 (SF-295 CNS) | TGI (SF-295 CNS) | GI50 (PC-3 prostate) | TGI (PC-3 prostate) | GI50 (MDA-MB-435) | TGI (MDA-MB-435) | GI50 (U251 CNS) | TGI (U251 CNS) | GI50 (SF-539 CNS) | TGI (SF-539 CNS) | GI50 (ACHN renal) | TGI (ACHN renal)
Cc1cn(Cc2ccccc2CCl)c(=O)n(Cc2ccccc2CCl)c1=O | 1.32 µM | 4.29 µM | 1.69 µM | 3.28 µM | 1.98 µM | 4.83 µM | 2.14 µM | 6.03 µM | 3.52 µM | 16.7 µM | 1.83 µM | 3.91 µM | 1.97 µM | 4.07 µM | 1.57 µM | 3.1 µM | 2.47 µM | 5.65 µM | 1.66 µM | 3.06 µM
Cc1c(C(N)=O)sc2c1c(=O)n(Cc1ccccc1)c1nnc(S(=O)(=O)CC(=O)Nc3ccc(Cl)cc3)n21 | 2.83 µM | 7.18 µM | 5.3 µM | 21.2 µM | 1.93 µM | 5.47 µM | 4.87 µM | 20.4 µM | 3.28 µM | 26.2 µM | 2.58 µM | 9.3 µM | 3.61 µM | 17 µM | 1.99 µM | 4.25 µM | 2.75 µM | 6.5 µM | 4.63 µM | 20.6 µM
COc1ccc(C=C2C(=O)NC(=O)NC2=O)cc1OCc1ccccc1 | 25.6 µg/mL | 79.4 µg/mL | 28.1 µg/mL | 82.5 µg/mL | 35.6 µg/mL |  | 50.7 µg/mL |  | 32.5 µg/mL |  | 46.7 µg/mL |  | 20.2 µg/mL | 56.1 µg/mL | 31.2 µg/mL |  | 20.3 µg/mL | 47.4 µg/mL | 36.9 µg/mL | 
COC(=O)Nc1nc2ccc(S(=O)(=O)c3ccc(NC(=O)Nc4cc(C(F)(F)F)ccc4F)cc3)cc2[nH]1 | > 25 µM | > 25 µM | > 25 µM | > 25 µM | > 25 µM | > 25 µM | > 25 µM | > 25 µM | > 25 µM | > 25 µM | > 25 µM | > 25 µM | > 25 µM | > 25 µM | > 25 µM | > 25 µM | > 25 µM | > 25 µM | > 25 µM | > 25 µM
CC1=NN(c2ccccc2)C(=O)C1N=Nc1ccc(S(N)(=O)=O)cc1 (stereo not given) |  | > 100 µM |  | > 100 µM |  | > 100 µM |  | > 100 µM |  | > 100 µM |  | > 100 µM |  | > 100 µM |  | > 100 µM |  | > 100 µM |  | > 100 µM
CN(CCCN(C)CCC1CCCCC1)CCC1CCCCC1 | 2.19 µM | 4.84 µM | 1.27 µM | 2.59 µM | 3.35 µM | 14.6 µM | 2.28 µM | 6.84 µM | 1.46 µM | 3.02 µM | 2.62 µM | 15.4 µM | 0.755 µM | 2.27 µM | 1.97 µM | 7.48 µM | 1.7 µM | 3.53 µM | 4 µM | 14.9 µM
O=C1C=C(OCCCl)C(=O)c2c(O)ccc(O)c21 | 2.1 µM | 1.4 µM and 4.39 µM | 0.741 µM | 0.32 µM and 2.19 µM |  | 3.01 µM and 3.1 µM | 0.296 µM and 1.56 µM | 1.15 µM and 3.85 µM | 2.44 µM | 3 µM and 4.53 µM | 2.67 µM | 4.32 µM and 10.1 µM | 0.157 µM | 0.389 µM and 0.294 µM | 2.76 µM | 3.33 µM and 7.48 µM | 1.58 µM | 2.82 µM and 2.93 µM | 1.89 µM | 2.89 µM and 4.95 µM
COc1cc2nncc(SCc3ccc(Cl)c(Cl)c3)c2cc1OC |  | > 100 µM |  | > 100 µM |  | > 91.9 µM |  | > 100 µM |  | > 100 µM |  | > 100 µM |  | > 100 µM |  | > 100 µM |  | > 100 µM |  | > 100 µM
O=C1NC(c2ccccc2)N=C2Oc3ccccc3C=C12 (stereo not given) |  | > 100 µM |  | > 31.6 µM |  | > 100 µM |  | > 100 µM |  | > 100 µM |  | > 100 µM |  | 0.138 µM |  | > 100 µM |  | 17.6 µM |  | > 100 µM
NCCSC(C[N+](=O)[O-])c1ccccc1Cl (stereo not given) | 21.9 µM | 51.5 µM | 2.14 µM | 6.01 µM | 12.1 µM | 30.1 µM | 1.82 µM | 4.05 µM | 1.5 µM | 3.83 µM | 4.19 µM | > 32.7 µM | 1.87 µM | 5.42 µM | 1.85 µM | 3.81 µM | 2.42 µM | 5.49 µM | 9.85 µM | 22.1 µM
COc1cc(-c2oc3c(OC)c(O)cc(O)c3c(=O)c2OC)ccc1O |  | 15.3 µM |  | > 31.3 µM |  | 87.7 µM |  | > 100 µM |  | 76.2 µM |  | > 74.9 µM |  | 52.3 µM |  | > 62.5 µM |  | > 50.2 µM |  | > 71.5 µM
COc1cc2c3cc1Oc1c(OC)c(OC)cc4c1C(Cc1ccc(cc1)Oc1cc(ccc1O)CC3N(C)CC2)N(C)CC4 (stereo not given) |  | 27 µM and 24.8 µM |  | 4.27 µM and 4.79 µM |  | 29.6 µM and 31.3 µM |  | 22.6 µM and 45.8 µM | 15.4 µM and 7.68 µM | 28.9 µM and 21.4 µM |  | 28.4 µM |  | 31.9 µM |  | 23.8 µM and 30.5 µM | 11.4 µM and 1.56 µM | 23.6 µM and 3.81 µM | 14.5 µM and 4.72 µM | 46.1 µM and 15.8 µM
CN(C)C(=S)SCC(N)=O |  | > 100 µM |  | > 100 µM |  | > 100 µM |  | > 100 µM |  | > 100 µM |  | > 100 µM |  | > 100 µM |  | > 100 µM |  | > 100 µM |  | > 100 µM
CC1=NN(C(=O)c2nn(-c3ccc(Cl)cc3)cc2O)C(=O)C1 | 53.7 µM | > 100 µM | 2.8 µM | > 53.5 µM | 3 µM | > 100 µM | 4.55 µM | > 100 µM | 0.285 µM |  | 0.348 µM | > 100 µM | 4.12 µM | > 100 µM | 0.734 µM | > 100 µM | 1.9 µM | > 87.4 µM | 1.61 µM | > 100 µM
CCCCN(CCCC)CCC(O)c1cc2ccc(C(F)(F)F)cc2c2cc(C(F)(F)F)ccc12 (stereo not given) | 2.53 µM | 4.51 µM | 1.82 µM | 3.77 µM | 3.5 µM | 13.1 µM | 1.76 µM | 5.13 µM | 5.18 µM | 18 µM | 2.52 µM | 9.67 µM | 2.13 µM | 4.59 µM | 1.79 µM | 3.75 µM | 2.04 µM | 5.44 µM | 2.94 µM | 12.6 µM
